From ChEMBL document CHEMBL5715945 (Cancer Biol Ther, 2010)
Calls of active or inactive are those of the source. The calls are words filed in the database; no cut-off is given here.

Assays:
[1] = biological target: Death-associated protein kinase 1 (Homo sapiens) (UniProt P53355); assay: Inhibition of DAPK1 (unknown origin) at 1 uM relative to control; values are per cent of control
[2] = biological target: Tyrosine-protein kinase Fyn (Homo sapiens) (UniProt P06241); assay: Inhibition of Fyn (unknown origin) at 1 uM relative to control; values are per cent of control
[3] = biological target: Rho-associated protein kinase 1 (Homo sapiens) (UniProt Q13464); assay: Inhibition of ROCK1 (unknown origin) at 0.1 uM relative to control; values are per cent of control
ID8 [4] = assay: Antitumor activity against mouse ID8 cells implanted in C57BL6 mouse assessed as reduction in number of ascites-associated cells at 0.5 mg/ml administered as solution in 5% sucrose measured after 30 days; type: functional, cell-based; conditions: time 30.0 day
4T1 [5] = assay: Induction of apoptosis in mouse 4T1 suspended cells at 0.1 to 0.4 uM incubated for 24 hrs by annexin V staining based flow cytometry analysis; type: functional; conditions: dose 0.1-0.4 µM
[6] = biological target: Insulin-like growth factor 1 receptor (Homo sapiens) (UniProt P08069); assay: Inhibition of IGF-1R (unknown origin) at 0.1 uM relative to control; values are per cent of control
[7] = biological target: Ephrin type-A receptor 1 (Homo sapiens) (UniProt P21709); assay: Inhibition of EphA1 (unknown origin) at 1 uM relative to control; values are per cent of control
[8] = biological target: ALK tyrosine kinase receptor (Homo sapiens) (UniProt Q9UM73); assay: Inhibition of ALK (unknown origin) at 0.1 uM relative to control; values are per cent of control
4T1 [9] = assay: Effect on Src phosphorylation at Tyr416 residue in mouse 4T1 cells harbouring mCherry red fluorescent protein at 0.1 to 1 uM incubated for 1 hr by immunoblotting analysis; type: functional, cell-based; conditions: dose 0.1-1 µM
[10] = biological target: Focal adhesion kinase 1 (Mus musculus) (UniProt P34152); assay: Inhibition of FAK phosphorylation at Y397 residue in mouse 4T1 adherent cells cultured as 3D spheroids at 0.1 to 1 uM incubated for 24 hrs by immunoblotting analysis; type: cell-based; conditions: dose 0.1-1 µM
[11] = biological target: Dual specificity mitogen-activated protein kinase kinase 1 (Homo sapiens) (UniProt Q02750); assay: Inhibition of MEK1 (unknown origin) at 0.1 uM relative to control; values are per cent of control
[12] = biological target: Serine/threonine-protein kinase Nek6 (Homo sapiens) (UniProt Q9HC98); assay: Inhibition of NEK6 (unknown origin) at 1 uM relative to control; values are per cent of control
MDA-MB-231 = assay: Upregulation of FAK level in human MDA-MB-231 cells harbouring mCherry red fluorescent protein at 0.1 to 1 uM incubated for 1 hr by immunoblotting analysis; type: functional, cell-based; conditions: dose 0.1-1 µM
[13] = biological target: Tyrosine-protein kinase Lck (Homo sapiens) (UniProt P06239); assay: Inhibition of Lck (unknown origin) at 0.1 uM relative to control; values are per cent of control
4T1 [14] = assay: Inhibition of colony formation in mouse 4T1 cells assessed as reduction in cell number measured after 10 days by phase contrast microscopy analysis; type: functional, cell-based; conditions: dose 0.4-1 µM, time 10.0 day
[15] = biological target: cAMP-dependent protein kinase (PKA) (Homo sapiens) (UniProt P22694+P17612+P22612); assay: Inhibition of PKA (unknown origin) at 0.1 uM relative to control; values are per cent of control
[16] = biological target: Mast/stem cell growth factor receptor Kit (Homo sapiens) (UniProt P10721); assay: Inhibition of c-kit (unknown origin) at 0.1 uM relative to control; values are per cent of control
[17] = biological target: Focal adhesion kinase 1 (Mus musculus) (UniProt P34152); assay: Inhibition of FAK phosphorylation at Tyr397 residue in mouse ID8 cells harbouring mCherry red fluorescent protein at 0.1 to 1 uM incubated for 1 hr by immunoblotting analysis; type: cell-based; conditions: dose 0.1-1 µM
[18] = biological target: Death-associated protein kinase 1 (Homo sapiens) (UniProt P53355); assay: Inhibition of DAPK1 (unknown origin) at 0.1 uM relative to control; values are per cent of control
[19] = biological target: Protein kinase C alpha type (Homo sapiens) (UniProt P17252); assay: Inhibition of PKCa (unknown origin) at 0.1 uM relative to control; values are per cent of control
[20] = biological target: Fibroblast growth factor receptor 1 (Homo sapiens) (UniProt P11362); assay: Inhibition of FGFR1 (unknown origin) at 1 uM relative to control; values are per cent of control
[21] = biological target: Activated CDC42 kinase 1 (Homo sapiens) (UniProt Q07912); assay: Inhibition of ACK1 (unknown origin) at 1 uM relative to control; values are per cent of control
4T1 [22] = assay: Inhibition of colony formation in mouse 4T1 cells assessed as reduction in cell size measured after 10 days by phase contrast microscopy analysis; type: functional, cell-based; conditions: dose 0.4-1 µM, time 10.0 day
4T1 [23] = assay: Inhibition of colony formation in mouse 4T1 cells assessed as reduction in cell number at 0.4 to 1 uM measured after 4 days by phase contrast microscopy analysis; type: functional, cell-based; conditions: dose 0.4-1 µM, time 4.0 day
[24] = biological target: Vascular endothelial growth factor receptor 2 (Homo sapiens) (UniProt P35968); assay: Inhibition of KDR (unknown origin) at 0.1 uM relative to control; values are per cent of control
[25] = biological target: Serine/threonine-protein kinase Chk1 (Homo sapiens) (UniProt O14757); assay: Inhibition of CHK1 (unknown origin) at 0.1 uM relative to control; values are per cent of control
ID8 [26] = assay: Antitumor activity against mouse ID8 suspended cells assessed as reduction in cell viability measured after 72 hrs by trypan blue staining based analysis; type: functional; conditions: dose 0.1 µM
[27] = biological target: Tyrosine-protein kinase JAK2 (Homo sapiens) (UniProt O60674); assay: Inhibition of JAK2 (unknown origin) at 0.1 uM relative to control; values are per cent of control
4T1 [28] = assay: Inhibition of colony formation in mouse 4T1 cells assessed as reduction in cell number by measuring minimum inhibitory effect at 0.2 uM measured after 10 days by phase contrast microscopy analysis; type: functional, cell-based; conditions: time 10.0 day
4T1 [29] = assay: Antitumor activity against mouse 4T1 cells harbouring mCherry red fluorescent protein implanted in BALB/c mouse assessed as increase in cleaved caspase-3 in tumor at 30 to 100 mg/kg, sc bid measured after 5 days by Hoechst staining based microscopic analysis; type: functional, organism-based; conditions: dose 30-100 mg/kg, time 5.0 day

Focal adhesion kinase 1 (Mus musculus), sequence (P34152 whole entry): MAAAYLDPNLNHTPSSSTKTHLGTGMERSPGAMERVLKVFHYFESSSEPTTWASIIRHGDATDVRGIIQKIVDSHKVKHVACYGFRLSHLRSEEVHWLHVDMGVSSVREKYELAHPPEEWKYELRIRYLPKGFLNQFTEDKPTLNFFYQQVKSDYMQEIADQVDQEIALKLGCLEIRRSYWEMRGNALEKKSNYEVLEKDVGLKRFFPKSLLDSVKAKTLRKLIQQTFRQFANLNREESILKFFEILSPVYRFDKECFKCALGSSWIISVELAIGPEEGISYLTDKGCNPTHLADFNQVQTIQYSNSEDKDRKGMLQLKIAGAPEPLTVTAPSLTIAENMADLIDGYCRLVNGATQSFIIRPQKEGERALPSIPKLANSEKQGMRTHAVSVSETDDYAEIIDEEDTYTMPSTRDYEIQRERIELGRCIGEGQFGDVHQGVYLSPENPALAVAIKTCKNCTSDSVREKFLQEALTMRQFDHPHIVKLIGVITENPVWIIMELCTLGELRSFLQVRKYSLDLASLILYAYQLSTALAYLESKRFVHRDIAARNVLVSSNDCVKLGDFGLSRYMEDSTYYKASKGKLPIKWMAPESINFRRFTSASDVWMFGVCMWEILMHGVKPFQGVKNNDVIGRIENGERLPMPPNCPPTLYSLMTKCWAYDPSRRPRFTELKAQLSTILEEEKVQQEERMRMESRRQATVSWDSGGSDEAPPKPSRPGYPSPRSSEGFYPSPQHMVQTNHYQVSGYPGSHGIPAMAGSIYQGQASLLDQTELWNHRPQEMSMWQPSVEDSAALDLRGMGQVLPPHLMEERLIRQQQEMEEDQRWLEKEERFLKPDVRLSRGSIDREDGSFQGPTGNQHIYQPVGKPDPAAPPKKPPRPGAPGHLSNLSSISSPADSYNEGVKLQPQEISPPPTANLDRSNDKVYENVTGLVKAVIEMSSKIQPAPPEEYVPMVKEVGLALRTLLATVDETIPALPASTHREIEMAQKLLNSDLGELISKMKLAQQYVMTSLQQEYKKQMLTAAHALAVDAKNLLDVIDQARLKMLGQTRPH
Death-associated protein kinase 1 (Homo sapiens), sequence (P53355 whole entry, looked up): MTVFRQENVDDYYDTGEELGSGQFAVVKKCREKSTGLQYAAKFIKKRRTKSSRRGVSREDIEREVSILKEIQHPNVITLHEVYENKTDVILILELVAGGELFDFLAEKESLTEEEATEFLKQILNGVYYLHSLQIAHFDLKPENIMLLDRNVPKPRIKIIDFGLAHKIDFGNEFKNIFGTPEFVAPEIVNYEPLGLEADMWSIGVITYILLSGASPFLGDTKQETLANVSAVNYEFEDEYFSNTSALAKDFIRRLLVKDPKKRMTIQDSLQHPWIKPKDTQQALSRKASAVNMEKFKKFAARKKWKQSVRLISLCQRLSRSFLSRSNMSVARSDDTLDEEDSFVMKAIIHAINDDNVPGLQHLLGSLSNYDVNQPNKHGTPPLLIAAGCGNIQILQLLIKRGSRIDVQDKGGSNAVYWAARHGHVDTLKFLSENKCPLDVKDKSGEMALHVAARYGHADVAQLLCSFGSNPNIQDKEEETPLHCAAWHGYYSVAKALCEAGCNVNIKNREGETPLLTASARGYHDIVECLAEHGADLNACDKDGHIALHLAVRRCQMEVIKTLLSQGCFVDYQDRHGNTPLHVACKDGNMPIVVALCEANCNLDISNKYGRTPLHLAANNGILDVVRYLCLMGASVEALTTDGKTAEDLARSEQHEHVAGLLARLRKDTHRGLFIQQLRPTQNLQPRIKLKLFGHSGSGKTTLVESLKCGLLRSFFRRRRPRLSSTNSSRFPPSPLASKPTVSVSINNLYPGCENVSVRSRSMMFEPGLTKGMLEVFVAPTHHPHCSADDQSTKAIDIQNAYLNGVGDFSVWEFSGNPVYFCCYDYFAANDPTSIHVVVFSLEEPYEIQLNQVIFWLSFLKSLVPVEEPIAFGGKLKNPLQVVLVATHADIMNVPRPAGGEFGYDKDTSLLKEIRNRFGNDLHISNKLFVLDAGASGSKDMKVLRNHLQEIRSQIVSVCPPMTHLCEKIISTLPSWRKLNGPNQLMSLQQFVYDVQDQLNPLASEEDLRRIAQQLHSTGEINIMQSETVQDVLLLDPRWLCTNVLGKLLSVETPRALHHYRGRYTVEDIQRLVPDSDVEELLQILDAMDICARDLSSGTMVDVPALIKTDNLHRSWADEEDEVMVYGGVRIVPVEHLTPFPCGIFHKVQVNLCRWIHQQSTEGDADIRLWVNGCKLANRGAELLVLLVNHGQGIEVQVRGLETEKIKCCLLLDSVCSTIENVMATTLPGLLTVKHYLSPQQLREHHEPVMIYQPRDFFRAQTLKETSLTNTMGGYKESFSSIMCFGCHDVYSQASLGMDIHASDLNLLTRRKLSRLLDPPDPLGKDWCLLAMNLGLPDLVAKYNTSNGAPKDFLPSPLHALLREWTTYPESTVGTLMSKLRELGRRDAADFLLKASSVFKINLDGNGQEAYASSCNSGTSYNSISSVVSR
Ephrin type-A receptor 1 (Homo sapiens), sequence (P21709 whole entry): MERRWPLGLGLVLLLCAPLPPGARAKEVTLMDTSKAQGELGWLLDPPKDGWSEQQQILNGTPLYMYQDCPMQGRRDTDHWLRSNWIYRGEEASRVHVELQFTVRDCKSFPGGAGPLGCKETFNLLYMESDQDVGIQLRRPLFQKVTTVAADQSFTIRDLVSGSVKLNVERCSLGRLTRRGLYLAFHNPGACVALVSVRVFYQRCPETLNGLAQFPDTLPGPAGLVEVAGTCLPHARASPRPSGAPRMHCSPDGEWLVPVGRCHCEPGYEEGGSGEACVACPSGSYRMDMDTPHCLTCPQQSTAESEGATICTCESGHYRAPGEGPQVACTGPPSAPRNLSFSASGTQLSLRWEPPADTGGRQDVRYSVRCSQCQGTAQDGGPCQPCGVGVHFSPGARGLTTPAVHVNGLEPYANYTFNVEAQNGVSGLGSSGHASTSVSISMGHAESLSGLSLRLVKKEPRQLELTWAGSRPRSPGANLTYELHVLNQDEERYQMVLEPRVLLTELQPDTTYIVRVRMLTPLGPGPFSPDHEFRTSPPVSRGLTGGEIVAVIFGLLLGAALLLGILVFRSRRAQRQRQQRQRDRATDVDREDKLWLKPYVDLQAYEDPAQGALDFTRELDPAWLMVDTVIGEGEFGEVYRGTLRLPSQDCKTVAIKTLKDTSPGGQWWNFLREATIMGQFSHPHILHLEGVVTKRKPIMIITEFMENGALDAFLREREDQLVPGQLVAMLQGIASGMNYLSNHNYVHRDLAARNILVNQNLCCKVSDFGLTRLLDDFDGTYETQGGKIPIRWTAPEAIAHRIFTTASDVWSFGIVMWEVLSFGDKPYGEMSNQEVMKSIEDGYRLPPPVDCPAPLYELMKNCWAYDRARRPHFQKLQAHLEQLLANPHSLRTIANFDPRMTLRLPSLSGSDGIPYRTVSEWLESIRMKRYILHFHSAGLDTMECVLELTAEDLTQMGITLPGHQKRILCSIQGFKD
Tyrosine-protein kinase Fyn (Homo sapiens), sequence (P06241 2-537 limits assumed): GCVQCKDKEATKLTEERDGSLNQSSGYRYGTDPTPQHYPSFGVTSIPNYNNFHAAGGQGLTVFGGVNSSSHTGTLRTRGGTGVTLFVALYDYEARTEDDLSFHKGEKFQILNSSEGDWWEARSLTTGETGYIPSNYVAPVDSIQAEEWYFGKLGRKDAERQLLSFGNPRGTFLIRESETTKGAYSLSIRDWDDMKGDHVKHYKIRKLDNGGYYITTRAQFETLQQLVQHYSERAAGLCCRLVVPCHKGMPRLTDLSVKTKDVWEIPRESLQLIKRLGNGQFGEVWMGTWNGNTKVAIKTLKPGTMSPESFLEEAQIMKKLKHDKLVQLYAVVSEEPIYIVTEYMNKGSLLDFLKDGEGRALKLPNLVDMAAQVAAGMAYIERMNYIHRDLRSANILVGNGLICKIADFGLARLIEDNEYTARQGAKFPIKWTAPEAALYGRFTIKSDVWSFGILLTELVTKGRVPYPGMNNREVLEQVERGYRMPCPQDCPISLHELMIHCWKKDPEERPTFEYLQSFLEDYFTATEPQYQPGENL
Dual specificity mitogen-activated protein kinase kinase 1 (Homo sapiens), sequence (Q02750 whole entry): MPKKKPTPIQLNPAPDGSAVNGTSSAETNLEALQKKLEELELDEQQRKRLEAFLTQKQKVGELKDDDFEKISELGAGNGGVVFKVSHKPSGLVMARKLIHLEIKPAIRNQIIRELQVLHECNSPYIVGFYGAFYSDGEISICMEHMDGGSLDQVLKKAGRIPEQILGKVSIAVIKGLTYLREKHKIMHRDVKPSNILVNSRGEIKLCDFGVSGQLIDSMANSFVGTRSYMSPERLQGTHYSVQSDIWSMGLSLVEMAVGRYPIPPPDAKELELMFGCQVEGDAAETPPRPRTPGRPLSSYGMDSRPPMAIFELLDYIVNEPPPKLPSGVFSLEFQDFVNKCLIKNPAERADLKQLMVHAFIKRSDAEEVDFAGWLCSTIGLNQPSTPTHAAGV

residual activity [2]: 78%
residual activity [3]: 96%
residual activity [6]: 123%
residual activity [7]: 108%
residual activity [8]: 145%
inhibition [10]: Active
residual activity [11]: 79%
residual activity [12]: 107%
residual activity [13]: 76%
residual activity [15]: 114%
residual activity [16]: 119%
inhibition [17]: Active
residual activity [19]: 101%
residual activity [20]: 97%
residual activity [21]: 16%
residual activity [24]: 118%
residual activity [25]: 109%
residual activity [27]: 116%
SMILES: CNC(=O)c1ccccc1Nc1cc(Nc2ccc(N3CCOCC3)cc2OC)ncc1C(F)(F)F [VS-4718]
residual activity [1]: 97%
Activity (ID8 [4]): Active
Activity (4T1 [5]): 50%
Activity (4T1 [9]): inactive
Activity (MDA-MB-231): Active
inhibition (4T1 [14]): Dose-Dependent Effect
residual activity [18]: 104%
inhibition (4T1 [22]): Dose-Dependent Effect
inhibition (4T1 [23]): Active
Activity (ID8 [26]): Dose-Dependent Effect
inhibition (4T1 [28]): Active
Activity (4T1 [29]): Active
